According to the supplement of paper PMC4932681:

How the values were obtained:
Assay in all cases: viability inhibition at highest dose (% inhibition); higher = more growth inhibition
T-47D Tam2 = conditions: 4-OH-tamoxifen in medium 1 µM; 72 h
Description: (§1)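 Percent inhibition of viability (CellTiter-Glo, 72 h) at the highest tested concentration (D5), normalised to DMSO (0%) and 100 µM benzethonium chloride (100%). Resistant lines and the 'in 1µM tamoxifen' arms were tested in 1 µM 4-OH-tamoxifen.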

T-47D = conditions: 72 h
Description: as §1

MCF-7 Tam1 = conditions: 4-OH-tamoxifen in medium 1 µM; 72 h
Description: as §1

BT-474 Tam1 = conditions: 4-OH-tamoxifen in medium 1 µM; 72 h
Description: as §1

ZR-75-1 = conditions: 72 h
Description: as §1

BT-474 = conditions: 72 h
Description: as §1

BT-474 Tam2 = conditions: 4-OH-tamoxifen in medium 1 µM; 72 h
Description: as §1

T-47D Tam1 = conditions: 4-OH-tamoxifen in medium 1 µM; 72 h
Description: as §1

ZR-75-1 Tam1 = conditions: 4-OH-tamoxifen in medium 1 µM; 72 h
Description: as §1

ZR-75-1 Tam2 = conditions: 4-OH-tamoxifen in medium 1 µM; 72 h
Description: as §1

MCF-7 = conditions: 72 h
Description: as §1

Compound	viability inhibition at highest dose (T-47D Tam2)	viability inhibition at highest dose (T-47D; 4-OH-tamoxifen in medium 0 µM)	viability inhibition at highest dose (T-47D; 4-OH-tamoxifen in medium 1 µM)	viability inhibition at highest dose (MCF-7 Tam1)	viability inhibition at highest dose (BT-474 Tam1)	viability inhibition at highest dose (ZR-75-1; 4-OH-tamoxifen in medium 0 µM)	viability inhibition at highest dose (ZR-75-1; 4-OH-tamoxifen in medium 1 µM)	viability inhibition at highest dose (BT-474; 4-OH-tamoxifen in medium 0 µM)	viability inhibition at highest dose (BT-474; 4-OH-tamoxifen in medium 1 µM)	viability inhibition at highest dose (BT-474 Tam2)	viability inhibition at highest dose (T-47D Tam1)	viability inhibition at highest dose (ZR-75-1 Tam1)	viability inhibition at highest dose (ZR-75-1 Tam2)	viability inhibition at highest dose (MCF-7; 4-OH-tamoxifen in medium 0 µM)	viability inhibition at highest dose (MCF-7; 4-OH-tamoxifen in medium 1 µM)
Nc1ccccc1NC(=O)c1ccc(CNC(=O)OCc2cccnc2)cc1 [Entinostat] (drug 10000 nM)	10.9	66.4	36.6	5.52	79	33.7	10.2	61.4	83.9	53.2	60.3	28.8	27.5	62.3	40.4
CO[C@@H]1[C@H](N(C)C(=O)c2ccccc2)C[C@H]2O[C@]1(C)n1c3ccccc3c3c4c(c5c6ccccc6n2c5c31)C(=O)NC4 [Midostaurin (PKC412)] (drug 10000 nM)	25.1	18.3	39.4	17.7	27.5	-11.7	0.532	23.7	40.4	19.4	34.6	-11.5	-15.6	18.9	17
CO[C@@]12[C@H](COC(N)=O)C3=C(C(=O)C(C)=C(N)C3=O)N1C[C@@H]1N[C@@H]12 [Mitomycin C] (drug 10000 nM)	10.8	31.4	-4.69	-6.06	0.772	25.5	23.7	-12.3	-7	0.827	33.5	28.3	23.4	16.2	11.4
CC(C)(C)c1cnc(CSc2cnc(NC(=O)C3CCNCC3)s2)o1 [SNS-032] (drug 10000 nM)	32	22.4	4.07	31.3	88.7	42.4	43.3	10.3	33.1	87.2	49.1	45.3	52.6	47.4	51.2
Oc1ncnc2[nH]ncc12 [Allopurinol] (drug 10000 nM)	4.5	0.987	3.06	3.95	-0.277	-2.05	9.69	2.31	19.8	8.84	5	8.36	-2.7	-21.9	-2.88
Cn1nnc2c(C(N)=O)ncn2c1=O [Temozolomide] (drug 10000 nM)	-13	0.803	1.13	1.07	19.9	11.9	-5.2	-5.95	22.9	-6.27	1.44	6.09	0.839	-13.8	-0.417
C/C(=C\c1csc(C)n1)[C@@H]1C[C@@H]2O[C@]2(C)CCC[C@H](C)[C@H](O)[C@@H](C)C(=O)C(C)(C)[C@@H](O)CC(=O)O1 [Patupilone  (Epothilone B)] (drug 1000 nM)	33.4	38.1	8.65	-9.25	38.2	8.28	-8.45	49.2	56.4	28	22	1.36	1.47	24.1	21.5
Nc1cccc2c1CN(C1CCC(=O)NC1=O)C2=O (stereo not given) [Lenalidomide] (drug 10000 nM)	-4.53	-20.4	-6.19	-1.73	5.58	-8.43	-6.55	-5.28	-16.5	2.75	-2.5	2.97	-0.811	-4.99	29.1
C=CC(=O)N1CCC[C@@H](n2nc(-c3ccc(Oc4ccccc4)cc3)c3c(N)ncnc32)C1 (drug 1000 nM)	14.1	-1.5	-2.82	-17.1	98.2	7.99	7.55	69.5	94.6	96.5	19.8	1.82	5.37	-5.41	23
CS(=O)(=O)OCCCCOS(C)(=O)=O [Busulfan] (drug 100000 nM)	6.32	-1.41	-0.37	-1.89	-2.76	1.38	-1.26	1.99	8.07	1	1.25	-5.35	-11.6	-5.52	10.5
O=NN(CCCl)C(=O)NCCCl [Carmustine] (drug 10000 nM)	2.64	-12.6	-5.73	-12.7	-0.31	-12.9	-8.4	-6.34	-3.07	4.36	0.948	-2.37	0.516	-2.85	5.33
NC(=O)c1ccc(I)c([N+](=O)[O-])c1 (drug 10000 nM)	14.7	-4.63	-1.38	2	-6.12	-1.66	4.93	3.04	-11	-6.48	7.73	7.66	-0.492	2.33	-5.76
CC(C)C[C@@H](C(=O)N[C@H](C(=O)OC1CCCC1)c1ccccc1)[C@H](O)C(=O)NO [Tosedostat (CHR 2797)] (drug 10000 nM)	48.2	33.3	15.7	14.2	34.7	22.3	28.8	19	54.7	28.5	46.1	30	37	40.5	38.1
